Columns and labels:
Experiment in all cases: Greenhouse herbicidal activity assay, post-emergence
Type in all cases: in vivo
Conditions in all cases: Post-emergence test, rate 150 g a.i./hm^2, grade by fresh weight inhibition rate
[1] = system: Digitaria sanguinalis
Procedure, shortened: (§1)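 Graded A (≥80%) to E (<20%) by fresh weight inhibition, read 14-21 days after spraying. Plants were pot-grown in a growth chamber and received foliar application at the 3-6 leaf stage, being air-dried and returned to the chamber afterwards.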

[2] = system: Echinochloa crusgalli
Procedure, shortened: as §1

[3] = system: Eclipta prostrata
Procedure, shortened: as §1

[4] = system: Leptochloa chinensis
Procedure, shortened: as §1

[5] = system: Cyperus iria
Procedure, shortened: as §1

Row | SMILES | Control efficacy grade, Digitaria sanguinalis [1] | Control efficacy grade, Echinochloa crusgalli [2] | Control efficacy grade, Eclipta prostrata [3] | Control efficacy grade, Leptochloa chinensis [4] | Control efficacy grade, Cyperus iria [5] | pest or weed control at 150 g/ha ([5]; Cyperus iria, read-out: Control efficacy grade, Cyperus iria) [%] | pest or weed control at 150 g/ha ([1]; Digitaria sanguinalis, read-out: Control efficacy grade, Digitaria sanguinalis) [%] | pest or weed control at 150 g/ha ([2]; Echinochloa crus-galli, read-out: Control efficacy grade, Echinochloa crusgalli) [%] | pest or weed control at 150 g/ha ([3]; Eclipta prostrata, read-out: Control efficacy grade, Eclipta prostrata) [%] | pest or weed control at 150 g/ha ([4]; Dinebra chinensis, read-out: Control efficacy grade, Leptochloa chinensis) [%]
1 | CCC(C)[S+]([O-])c1c(S(C)(=O)=O)ccc(C(=O)Nc2nnnn2C)c1Cl (mixture of isomers) [Compound 1-19] | A (Fresh weight inhibition rate≥80% to 100%) | A (Fresh weight inhibition rate≥80% to 100%) | A (Fresh weight inhibition rate≥80% to 100%) | A (Fresh weight inhibition rate≥80% to 100%) | – | – | – | – | – | –
2 | CCC(C)[S+]([O-])c1c(S(C)(=O)=O)ccc(C(=O)Nc2ncnn2C)c1Cl (mixture of isomers) [Compound 2-19] | A (Fresh weight inhibition rate≥80% to 100%) | A (Fresh weight inhibition rate≥80% to 100%) | A (Fresh weight inhibition rate≥80% to 100%) | A (Fresh weight inhibition rate≥80% to 100%) | A (Fresh weight inhibition rate≥80% to 100%) | – | – | – | – | –
3 | CCC(C)[S+]([O-])c1c(S(C)(=O)=O)ccc(C(=O)Nc2nnc(C)o2)c1Cl (mixture of isomers) [Compound 3-19] | A (Fresh weight inhibition rate≥80% to 100%) | A (Fresh weight inhibition rate≥80% to 100%) | A (Fresh weight inhibition rate≥80% to 100%) | A (Fresh weight inhibition rate≥80% to 100%) | A (Fresh weight inhibition rate≥80% to 100%) | – | – | – | – | –
4 | CCC(C)[S+]([O-])c1c(S(C)(=O)=O)ccc(C(=O)Nc2nnco2)c1Cl (mixture of isomers) [Compound 3-285] | A (Fresh weight inhibition rate≥80% to 100%) | A (Fresh weight inhibition rate≥80% to 100%) | A (Fresh weight inhibition rate≥80% to 100%) | A (Fresh weight inhibition rate≥80% to 100%) | A (Fresh weight inhibition rate≥80% to 100%) | – | – | – | – | –
5 | CCc1nnc(NC(=O)c2ccc(S(C)(=O)=O)c([S+]([O-])C(C)CC)c2Cl)o1 (mixture of isomers) [Compound 3-401] | A (Fresh weight inhibition rate≥80% to 100%) | A (Fresh weight inhibition rate≥80% to 100%) | A (Fresh weight inhibition rate≥80% to 100%) | A (Fresh weight inhibition rate≥80% to 100%) | A (Fresh weight inhibition rate≥80% to 100%) | – | – | – | – | –
6 | CCC(C)[S+]([O-])c1c(S(C)(=O)=O)ccc(C(=O)Nc2nnc(C3CC3)o2)c1Cl (mixture of isomers) [Compound 3-633] | A (Fresh weight inhibition rate≥80% to 100%) | A (Fresh weight inhibition rate≥80% to 100%) | A (Fresh weight inhibition rate≥80% to 100%) | A (Fresh weight inhibition rate≥80% to 100%) | A (Fresh weight inhibition rate≥80% to 100%) | – | – | – | – | –
7 | CCC[S+]([O-])c1c(S(C)(=O)=O)ccc(C(=O)Nc2nnnn2C)c1Cl (racemic) [Compound 1-2, 2-chloro-N-(1-methyl-1H-tetrazol-5-yl)-4-(methylsulfonyl)-3-(propylsulfinyl)benzamide] | – | – | – | – | – | 80 to 100 | 80 to 100 | 80 to 100 | 80 to 100 | 80 to 100
8 | CC(C)[S+]([O-])c1c(S(C)(=O)=O)ccc(C(=O)Nc2nnnn2C)c1Cl (racemic) [Compound 1-7] | A (Fresh weight inhibition rate≥80% to 100%) | A (Fresh weight inhibition rate≥80% to 100%) | A (Fresh weight inhibition rate≥80% to 100%) | A (Fresh weight inhibition rate≥80% to 100%) | A (Fresh weight inhibition rate≥80% to 100%) | – | – | – | – | –
9 | CCCC[S+]([O-])c1c(S(C)(=O)=O)ccc(C(=O)Nc2nnnn2C)c1Cl (racemic) [Compound 1-12] | A (Fresh weight inhibition rate≥80% to 100%) | A (Fresh weight inhibition rate≥80% to 100%) | A (Fresh weight inhibition rate≥80% to 100%) | A (Fresh weight inhibition rate≥80% to 100%) | A (Fresh weight inhibition rate≥80% to 100%) | – | – | – | – | –
10 | Cn1nnnc1NC(=O)c1ccc(S(C)(=O)=O)c([S+]([O-])CC2CC2)c1Cl (racemic) [Compound 1-28] | A (Fresh weight inhibition rate≥80% to 100%) | A (Fresh weight inhibition rate≥80% to 100%) | A (Fresh weight inhibition rate≥80% to 100%) | A (Fresh weight inhibition rate≥80% to 100%) | A (Fresh weight inhibition rate≥80% to 100%) | – | – | – | – | –
11 | Cn1nnnc1NC(=O)c1ccc(S(C)(=O)=O)c([S+]([O-])C2CC2)c1Cl (racemic) [Compound 1-33] | A (Fresh weight inhibition rate≥80% to 100%) | A (Fresh weight inhibition rate≥80% to 100%) | A (Fresh weight inhibition rate≥80% to 100%) | A (Fresh weight inhibition rate≥80% to 100%) | A (Fresh weight inhibition rate≥80% to 100%) | – | – | – | – | –
12 | Cn1nnnc1NC(=O)c1ccc(S(C)(=O)=O)c([S+]([O-])C2CCC2)c1Cl (racemic) [Compound 1-38] | A (Fresh weight inhibition rate≥80% to 100%) | A (Fresh weight inhibition rate≥80% to 100%) | A (Fresh weight inhibition rate≥80% to 100%) | B (Fresh weight inhibition rate≥260% to <80%) | A (Fresh weight inhibition rate≥80% to 100%) | – | – | – | – | –
13 | Cn1nnnc1NC(=O)c1ccc(S(C)(=O)=O)c([S+]([O-])C2CCCCC2)c1Cl (racemic) [Compound 1-48] | A (Fresh weight inhibition rate≥80% to 100%) | A (Fresh weight inhibition rate≥80% to 100%) | A (Fresh weight inhibition rate≥80% to 100%) | A (Fresh weight inhibition rate≥80% to 100%) | A (Fresh weight inhibition rate≥80% to 100%) | – | – | – | – | –
14 | Cn1nnnc1NC(=O)c1ccc(S(C)(=O)=O)c([S+]([O-])CC(F)F)c1Cl (racemic) [Compound 1-58] | A (Fresh weight inhibition rate≥80% to 100%) | A (Fresh weight inhibition rate≥80% to 100%) | A (Fresh weight inhibition rate≥80% to 100%) | A (Fresh weight inhibition rate≥80% to 100%) | B (Fresh weight inhibition rate≥260% to <80%) | – | – | – | – | –
15 | Cn1nnnc1NC(=O)c1ccc(S(C)(=O)=O)c([S+]([O-])CC#N)c1Cl (racemic) [Compound 1-63] | B (Fresh weight inhibition rate≥260% to <80%) | A (Fresh weight inhibition rate≥80% to 100%) | A (Fresh weight inhibition rate≥80% to 100%) | A (Fresh weight inhibition rate≥80% to 100%) | A (Fresh weight inhibition rate≥80% to 100%) | – | – | – | – | –
16 | C=CC[S+]([O-])c1c(S(C)(=O)=O)ccc(C(=O)Nc2nnnn2C)c1Cl (racemic) [Compound 1-68] | A (Fresh weight inhibition rate≥80% to 100%) | A (Fresh weight inhibition rate≥80% to 100%) | A (Fresh weight inhibition rate≥80% to 100%) | A (Fresh weight inhibition rate≥80% to 100%) | A (Fresh weight inhibition rate≥80% to 100%) | – | – | – | – | –
17 | Cc1nonc1NC(=O)c1ccc(S(C)(=O)=O)c([S+]([O-])C(C)C)c1Cl (racemic) [Compound 4-7] | B (Fresh weight inhibition rate≥260% to <80%) | A (Fresh weight inhibition rate≥80% to 100%) | A (Fresh weight inhibition rate≥80% to 100%) | A (Fresh weight inhibition rate≥80% to 100%) | – | – | – | – | – | –
18 | Cn1ncnc1NC(=O)c1ccc(S(C)(=O)=O)c(SC2CC2)c1Cl [Compound 2-32] | A (Fresh weight inhibition rate≥80% to 100%) | A (Fresh weight inhibition rate≥80% to 100%) | A (Fresh weight inhibition rate≥80% to 100%) | A (Fresh weight inhibition rate≥80% to 100%) | – | – | – | – | – | –
19 | Cc1nonc1NC(=O)c1ccc(S(C)(=O)=O)c(S(=O)(=O)C(C)C)c1Cl [Compound 4-10] | B (Fresh weight inhibition rate≥260% to <80%) | A (Fresh weight inhibition rate≥80% to 100%) | – | A (Fresh weight inhibition rate≥80% to 100%) | A (Fresh weight inhibition rate≥80% to 100%) | – | – | – | – | –
